Reference: patent US10864196B2, “Modulators of the integrated stress pathway” (Calico Life Sciences LLC, priority 2016, dated 2020)

What follows are compounds tested on HEK293T cells carrying the ATF4 luciferase reporter (assay: ATF4-Luc assay (in vitro model of VWMD)). Conditions: Homo sapiens, HEK-293T, 1 μg/mL tunicamycin, 7 hours, One Glo luminescence.
Type: cell-based
Method: In order to test exemplary compounds of the invention in a cellular context, a stable VWMD cell line was first constructed. The ATF4 reporter was prepared by fusing the human full-length ATF4 5′-UTR (NCBI Accession No. BC022088.2) in front of the firefly luciferase (FLuc) coding sequence lacking the initiator methionine as described in Sidrauski et al (eLife 2013). The construct was used to produce recombinant retroviruses using standard methods and the resulting viral supernatant was used to transduce HEK293T cells, which were then subsequently selected with puromycin to generate a stable cell line.
HEK293T cells carrying the ATF4 luciferase reporter were plated on polylysine coated 384-well plates (Greiner Bio-one) at 30,000 cells per well. Cells were treated the next day with 1 μg/mL tunicamycin and 200 nM of a compound of Formula (I) for 7 hours. Luminescence was measured using One Glo (Promega) as specified by the manufacturer. Cells were maintained in DMEM with L-glutamine supplemented with 10% heat-inactivated FBS (Gibco) and Antibiotic-Antimycotic solution (Gibco).
Table 2 below summarizes the EC50 data obtained using the ATF4-Luc assay for exemplary compounds of the invention.
With `Cc1cc(OCc2nnc(C34CC(NC(=O)COc5ccc(Cl)c(F)c5)(C3)C4)o2)cnc1C#N` [Compound 156, 2-(4-chloro-3-fluorophenoxy)-N-[3-(5-{[(6-cyano-5-methylpyridin-3-yl)oxy]methyl}-1,3,4-oxadiazol-2-yl)bicyclo[1.1.1]pentan-1-yl]acetamide] the EC50 was 1000 to 2000 nM. For `COc1ncc(OCc2nnc(C34CC(NC(=O)COc5ccc(Cl)c(F)c5)(C3)C4)o2)cc1C` [Compound 155, 2-(4-chloro-3-fluorophenoxy)-N-[3-(5-{[(6-methoxy-5-methylpyridin-3-yl)oxy]methyl}-1,3,4-oxadiazol-2-yl)bicyclo[1.1.1]pentan-1-yl]acetamide], the EC50 was 250 to 1000 nM. `O=C(COc1ccc(Cl)c(F)c1)NC12CC(c3nnc(COc4cncc(Cl)c4)o3)(C1)C2` [Compound 148, 2-(4-chloro-3-fluorophenoxy)-N-[3-(5-{[(5-chloropyridin-3-yl)oxy]methyl}-1,3,4-oxadiazol-2-yl)bicyclo[1.1.1]pentan-1-yl]acetamide] showed an EC50 of 50 to 250 nM. For `Cc1ccccc1Oc1nnc(C23CC(NC(=O)COc4ccc(Cl)c(F)c4)(C2)C3)o1` [Compound 134, 2-(4-chloro-3-fluorophenoxy)-N-{3-[5-(2-methylphenoxy)-1,3,4-oxadiazol-2-yl]bicyclo[1.1.1]pentan-1-yl}acetamide], the EC50 was 250 to 1000 nM. `CC(C)c1ccc(OCc2nnc(C34CC(NC(=O)COc5ccc(Cl)c(F)c5)(C3)C4)o2)cn1` [Compound 154, 2-(4-chloro-3-fluorophenoxy)-N-{3-[5-({[6-(propan-2-yl)pyridin-3-yl]oxy}methyl)-1,3,4-oxadiazol-2-yl]bicyclo[1.1.1]pentan-1-yl}acetamide] was tested, and the EC50 was > 2000 nM. In the case of `O=C(COc1ccc2c(c1)OC(F)(F)O2)NC12CC(c3nnc(COc4ccc(Cl)c(F)c4)o3)(C1)C2` [Compound 133, N-(3-{5-[(4-chloro-3-fluorophenoxy)methyl]-1,3,4-oxadiazol-2-yl}bicyclo-[1.1.1]pentan-1-yl)-2-[(2,2-difluoro-2H-1,3-benzodioxol-5-yl)oxy]acetamide], the EC50 is reported as < 50 nM. For `COc1ccc(Oc2nnc(C34CC(NC(=O)COc5ccc(Cl)c(F)c5)(C3)C4)o2)cn1` [Compound 120, 2-(4-chloro-3-fluorophenoxy)-N-(3-{5-[(6-methoxypyridin-3-yl)oxy]-1,3,4-oxadiazol-2-yl}bicyclo[1.1.1]pentan-1-yl)acetamide], the EC50 was 50 to 250 nM. `COc1ccc(OCc2nnc(C34CC(NC(=O)COc5ccc(Cl)c(F)c5)(C3)C4)o2)cn1` [Compound 142, 2-(4-chloro-3-fluorophenoxy)-N-[3-(5-{[(6-methoxypyridin-3-yl)oxy]methyl}-1,3,4-oxadiazol-2-yl)bicyclo[1.1.1]pentan-1-yl]acetamide] was tested, and the EC50 was < 50 nM. In the case of `O=C(COc1ccc(Cl)c(F)c1)NC12CCC(c3nc(COc4ccnc(C(F)(F)F)c4)no3)(CC1)C(O)C2` (stereo not shown) [Compound 167, 2-(4-chloro-3-fluorophenoxy)-N-{3-hydroxy-4-[3-({[2-(trifluoromethyl)pyridin-4-yl]oxy}methyl)-1,2,4-oxadiazol-5-yl]bicyclo[2.2.2]octan-1-yl}acetamide], the EC50 is reported as 50 to 250 nM. For `Cc1cncc(OCc2nnc(C34CC(NC(=O)COc5ccc(Cl)c(F)c5)(C3)C4)o2)c1` [Compound 143, 2-(4-chloro-3-fluorophenoxy)-N-[3-(5-{[(5-methylpyridin-3-yl)oxy]methyl}-1,3,4-oxadiazol-2-yl)bicyclo[1.1.1]pentan-1-yl]acetamide], the EC50 was 250 to 1000 nM. For `O=C(COc1ccc(F)cc1)NC12CC(c3nc(COc4ccc(Cl)cc4)no3)(C1)C2` [Compound 108, N-(3-{3-[(4-chlorophenoxy)methyl]-1,2,4-oxadiazol-5-yl}bicyclo[1.1.1]pentan-1-yl)-2-(4-fluorophenoxy)acetamide], the EC50 was 250 to 1000 nM. Work on `O=C(COc1ccc(Cl)c(F)c1)NC12CC(c3nnc(Oc4cncc(C(F)(F)F)c4)o3)(C1)C2` [Compound 117, 2-(4-chloro-3-fluorophenoxy)-N-[3-(5-{[5-(trifluoromethyl)pyridin-3-yl]oxy}-1,3,4-oxadiazol-2-yl)bicyclo[1.1.1]pentan-1-yl]acetamide] yielded an EC50 of 50 to 250 nM. Work on `N#Cc1ccc(Oc2nnc(C34CC(NC(=O)COc5ccc(Cl)c(F)c5)(C3)C4)o2)cn1` [Compound 119, 2-(4-chloro-3-fluorophenoxy)-N-(3-{5-[(6-cyanopyridin-3-yl)oxy]-1,3,4-oxadiazol-2-yl}bicyclo[1.1.1]pentan-1-yl)acetamide] yielded an EC50 of 250 to 1000 nM. `COCc1nnc([C@]23CC[C@](NC(=O)COc4ccc(Cl)c(F)c4)(CC2)CC3=O)o1` [Compound 164, 2-(4-chloro-3-fluorophenoxy)-N-{4-[5-(methoxymethyl)-1,3,4-oxadiazol-2-yl]-3-oxobicyclo[2.2.2]octan-1-yl}acetamide] was tested, and the EC50 was 250 to 1000 nM. `Cc1cc(OCC(=O)NC23CC(c4nc(COc5ccc(Cl)cc5)no4)(C2)C3)ccc1Cl` [Compound 104, 2-(4-chloro-3-methylphenoxy)-N-(3-{3-[(4-chlorophenoxy)methyl]-1,2,4-oxadiazol-5-yl}bicyclo[1.1.1]pentan-1-yl)acetamide] was tested, and the EC50 was 250 to 1000 nM. `Cc1cccc(Oc2nnc(C34CC(NC(=O)COc5ccc(Cl)c(F)c5)(C3)C4)o2)c1` [Compound 135, 2-(4-chloro-3-fluorophenoxy)-N-{3-[5-(3-methylphenoxy)-1,3,4-oxadiazol-2-yl]bicyclo[1.1.1]pentan-1-yl}acetamide] was tested, and the EC50 was 50 to 250 nM. Compound `N#Cc1cccc(Oc2nnc(C34CC(NC(=O)COc5ccc(Cl)c(F)c5)(C3)C4)o2)c1` [Compound 129, 2-(4-chloro-3-fluorophenoxy)-N-{3-[5-(3-cyanophenoxy)-1,3,4-oxadiazol-2-yl]bicyclo[1.1.1]pentan-1-yl}acetamide] has an EC50 of 50 to 250 nM. With `COc1ccccc1Oc1nnc(C23CC(NC(=O)COc4ccc(Cl)c(F)c4)(C2)C3)o1` [Compound 124, 2-(4-chloro-3-fluorophenoxy)-N-{3-[5-(2-methoxyphenoxy)-1,3,4-oxadiazol-2-yl]bicyclo[1.1.1]pentan-1-yl}acetamide] the EC50 was > 2000 nM. For `O=C(COc1ccc(Cl)c(F)c1)NC12CC(c3nnc(Oc4ccc(F)cc4)o3)(C1)C2` [Compound 126, 2-(4-chloro-3-fluorophenoxy)-N-{3-[5-(4-fluorophenoxy)-1,3,4-oxadiazol-2-yl]bicyclo[1.1.1]pentan-1-yl}acetamide], the EC50 was < 50 nM. For `O=C(COc1ccc(Cl)c(F)c1)NC12CC(c3nnc(COc4ccc(C5CC5)nc4)o3)(C1)C2` [Compound 150, 2-(4-chloro-3-fluorophenoxy)-N-[3-(5-{[(6-cyclopropylpyridin-3-yl)oxy]methyl}-1,3,4-oxadiazol-2-yl)bicyclo[1.1.1]pentan-1-yl]acetamide], the EC50 was 1000 to 2000 nM. In the case of `O=C(COc1ccc(Cl)cc1)NC12CC(c3nc(COc4ccc(Cl)c(Cl)c4)no3)(C1)C2` [Compound 158, 2-(4-chlorophenoxy)-N-(3-{3-[(3,4-dichlorophenoxy)methyl]-1,2,4-oxadiazol-5-yl}bicyclo[1.1.1]pentan-1-yl)acetamide], the EC50 is reported as < 50 nM. For `O=C(COc1ccc(Cl)c(F)c1)NC12CC(c3nnc(Oc4ccc(C(F)(F)F)cc4)o3)(C1)C2` [Compound 131, 2-(4-chloro-3-fluorophenoxy)-N-(3-{5-[4-(trifluoromethyl)phenoxy]-1,3,4-oxadiazol-2-yl}bicyclo[1.1.1]pentan-1-yl)acetamide], the EC50 was < 50 nM.
